Measurements from publication PMC6680840 (Molecules, 2019).
“Also recorded” adds a separate entry of the source.

How the values were obtained:
[1] = molecular target: T1, AChE (from human erythrocyte) (Homo sapiens, UniProt P22303); assay: biochemical; conditions: at 50 μM
T1 construct: AChE (EC 3.1.1.8, from human erythrocyte); purchased Sigma-Aldrich (St. Louis, MO, USA); host or cells: human erythrocyte
Protocol: (§1) BChE (EC 3.1.1.8, from human serum), AChE (EC […]), butyrylthiocholine (BUC) iodide, and acetylthiocholine (ATC) iodide were purchased from Sigma-Aldrich (St. Louis, MO, USA). Enzyme was dissolved and pre-prepared at 2.0 U/mL. 10 μL of enzyme, 20 μL of 0.01 M 5,5′-dithiobis(2-nitrobenzoic acid), 10 μL of tested compound, and 40 μL of PBS were pre-incubated together for 5 min. Io initiate the reaction, 20 μL of 0.01 M BUC or ATC was added. The activity was determined by measuring the increase in absorbance at 410 nm at 37 °C in 2 min intervals using Tecan Spark multimode microplate reader (Mannedorf, Switzerland). The percentage of inhibition (I) was calculated according to the formula: I = (Ac − Ai)/Ac × 100%, with Ai and Ac representing the change in the absorbance in the presence of an inhibitor and without an inhibitor, respectively.

[2] = molecular target: T2, BChE (EC 3.1.1.8, from human serum) (Homo sapiens, UniProt P06276); assay: biochemical; conditions: for BChE IR (%) inhibition ratio: at 50 μM; for improved BChE inhibitory activity, folds compared with 1: compared with hit 1; for IC50: mean ± SD of three separate experiments
T2 construct: BChE (EC 3.1.1.8, from human serum); purchased Sigma-Aldrich (St. Louis, MO, USA); host or cells: human serum
Protocol: as §1

Aβ1-42 aggregation = molecular target: T3, Aβ1-42 aggregation (Homo sapiens, UniProt P05067); assay: Inhibition of Aβ1-42 aggregation, thioflavin T (ThT) method; assay type: biochemical; conditions: for inhibitory activity against Aβ1-42 aggregation (in words): 1 to 10 μM; for inhibition ratio towards Aβ1-42 aggregation: at 10 μM
T3 construct: pre-treated Aβ1–42 (GL Biochem Ltd); purchased GL Biochem Ltd, shanghai, China
Protocol: The ThT-based fluorometric assay [54] was performed for the determination of compounds’ anti-Aβ1–42 aggregation potency.
Determination of the inhibitory potency on Aβ1–42 aggregation
1,1,1,3,3,3-hexafluoro-2-propanol (HFIP) pre-treated Aβ1–42 (GL Biochem Ltd, shanghai, China) was dissolved in DMSO to make a 200 μM stock solution. The stock solution was centrifuged at the speed of 13,500 rpm for 10 min. The above supernatant was used for further experiments. The compounds for testing were dissolved in DMSO at concentrations of 0.8 mM. A screening assay for the compounds to inhibit Aβ aggregation was performed by measuring ThT fluorescence emission.
μL) and 2 μL of 200 μM Aβ1–42 were added into 76 μL of phosphate-bufered saline (PBS at pH 7.4) in a 96-well microtiter plate. After incubation for 24 h at room temperature, 80 μL of 5 μM ThT solution (in 50 mM glycine-NaOH at pH 8.5) was added to the reaction solution. Fluorescence emission was measured at 490 nm with an excitation wavelength of 450 nm on a Tecan Spark multimode microplate reader. The fluorescence intensities were compared and the % inhibition was calculated by the following equation: 100 − [(Fi − Fb)/(Fo − Fb) × 100] where Fi, Fo and Fb are the fluorescence intensities obtained for Aβ aggregation in the presence of inhibitors, A β1– 42 and ThT; in the presence of Aβ1–42 and THT but no inhibitors; and the blanks

[3] = test system: SH-SY5Y neuroblastoma cells; assay: Cell viability (cytotoxicity) MTT assay; assay type: cell-based; conditions: tested concentrations up to 200 μM
Protocol: (§2) The MTT method was used to test the cytotoxicity and neuroprotective activity evaluation of compounds. The detailed procedure was included in Supplementary Materials. […]
42 and ThT; in the presence of Aβ1–42 and THT but no inhibitors; and the blanks […]
SH-SY5Y cells were inoculated into 96-well plates, and each well was seeded with […]. After incubation for 24 h, the medium was removed and replaced with 100 µL medium containing the different concentrations of tested compounds for 24 h, and then incubated with 10 µL of 3-(4,5-dimethylthiazol-2-yl)-2,5-diphenyltetrazolium bromide (MTT) at 37 °C for 3 h. In this step, 100 µL DMSO was added to dissolve the […]
(1 picture or pasted object on this page, not shown here) […]
(§3) formazan crystals. The formazan dye product was measured by the absorbance at 490 nm on a Tecan Spark multimode microplate reader (Tecan, Switzerland).
(§4) Neuroprotective activity assay
SH-SY5Y cells were maintained at 37 °C in a humidified atmosphere containing 5% CO2. Cells were seeded into multi-well plates at a density of 2~2.5 × 10^5 cells/mL in DMEM medium, supplemented with 10% heat-inactivated bovine calf serum (Gibco, South America Origin). Experiments were carried out in 24 h after cells were seeded. […]
Th e compounds were first dissolved with DMSO and then diluted with DMEM medium. […]

[4] = test system: Aβ1-42-induced toxicity in SH-SY5Y cells; assay: Protective activity against Aβ1-42-induced toxicity, MTT method; assay type: cell-based; conditions: for viability at 5 µM / viability at 10 µM: Homo sapiens, SH-SY5Y, 24 h, read-out: cell viability of Aβ1-42-treated SH-SY5Y cells
Protocol: Based on this observation, compound 23 might be a more promising protective agent against Aβ1-42-induced toxicity on the SH-SY5Y cell model.
as §2, §3, §4
SH-SY5Y cells were maintained at 37 °C in a humidified atmosphere containing 5% CO2. Cells were seeded into multi-well plates at a density of 2~2.5 × 10^5 cells/mL in DMEM medium, supplemented with 10% heat-inactivated bovine calf serum (Gibco, South America Origin). Experiments were carried out in 24 h after cells were seeded.
Aβ1–42 were stored at 4 °C until 0.1 mM stock solutions were prepared in phosphate bufer saline (PBS) on the day of application to cultures. Th e compounds were first dissolved with DMSO and then diluted with DMEM medium. After pretreatment with the compounds for 2 h, Aβ1–42 were added to SH-SY5Y cell cultures in 24 h. Assays for cell viability were performed in 24 h after cultured in fresh medium .

BChE = molecular target: T4, BChE (Homo sapiens, UniProt P06276); assay: Kinetic study of BChE inhibition (Lineweaver-Burk); assay type: biochemical
T4 construct: BChE (EC 3.1.1.8, from human serum); purchased Sigma-Aldrich (St. Louis, MO, USA); host or cells: human serum
Protocol: To further understand the action mechanism for BChE inhibition of this series of compounds, the kinetic assay was performed with the optimal compound 23 as a model compound. […]. […] The result was confirmed by the subsequent molecular docking study of 23. […].
Kinetic study of BChE inhibition was performed by using Ellman’s method as described in Section 3.3.
Figure 3 Kinetic study of 23 on BChE inhibition. […];

T1 sequence (P22303 other isoform, or with tags, fused parts or gaps): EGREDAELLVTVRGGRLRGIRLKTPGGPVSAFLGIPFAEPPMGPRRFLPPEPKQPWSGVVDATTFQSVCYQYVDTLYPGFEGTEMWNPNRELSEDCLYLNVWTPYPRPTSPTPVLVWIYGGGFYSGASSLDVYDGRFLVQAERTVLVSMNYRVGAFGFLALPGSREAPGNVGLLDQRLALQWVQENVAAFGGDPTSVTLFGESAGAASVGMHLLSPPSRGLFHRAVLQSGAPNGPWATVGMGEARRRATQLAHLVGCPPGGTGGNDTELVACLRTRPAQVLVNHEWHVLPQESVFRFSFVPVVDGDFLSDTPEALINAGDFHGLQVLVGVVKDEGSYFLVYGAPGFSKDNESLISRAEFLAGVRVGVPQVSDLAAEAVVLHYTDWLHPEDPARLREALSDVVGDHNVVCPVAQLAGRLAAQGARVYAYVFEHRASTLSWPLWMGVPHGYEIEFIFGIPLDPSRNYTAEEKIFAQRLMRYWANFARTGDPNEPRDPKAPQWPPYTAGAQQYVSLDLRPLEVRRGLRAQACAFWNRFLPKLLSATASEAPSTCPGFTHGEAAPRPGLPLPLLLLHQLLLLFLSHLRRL
T3 sequence (P05067 672-713): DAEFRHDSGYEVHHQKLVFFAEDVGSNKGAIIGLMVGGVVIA
T2 sequence (P06276 29-602): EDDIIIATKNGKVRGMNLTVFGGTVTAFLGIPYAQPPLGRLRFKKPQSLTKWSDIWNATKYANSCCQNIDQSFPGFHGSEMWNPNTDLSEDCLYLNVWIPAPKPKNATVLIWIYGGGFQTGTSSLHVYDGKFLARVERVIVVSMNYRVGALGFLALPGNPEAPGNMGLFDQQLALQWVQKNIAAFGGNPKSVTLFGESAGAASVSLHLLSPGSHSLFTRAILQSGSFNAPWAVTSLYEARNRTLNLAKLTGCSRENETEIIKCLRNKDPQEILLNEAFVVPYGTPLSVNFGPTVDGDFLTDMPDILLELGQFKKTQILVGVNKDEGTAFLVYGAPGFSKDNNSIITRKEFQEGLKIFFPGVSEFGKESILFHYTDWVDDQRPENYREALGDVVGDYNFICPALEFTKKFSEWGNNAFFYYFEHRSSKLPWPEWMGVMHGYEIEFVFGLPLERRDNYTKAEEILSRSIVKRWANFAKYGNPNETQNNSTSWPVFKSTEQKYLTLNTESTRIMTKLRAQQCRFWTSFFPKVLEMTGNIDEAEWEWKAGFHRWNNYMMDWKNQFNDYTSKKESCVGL
T4 sequence (P06276 29-602): as above

Row | SMILES | AChE IR (%) inhibition ratio [1] [%] | BChE IR (%) inhibition ratio [2] [%] | improved BChE inhibitory activity, folds compared with 1 [2] [fold] | IC50 [2] [nM] | inhibitory activity against Aβ1-42 aggregation (in words) (Aβ1-42 aggregation) | inhibition ratio towards Aβ1-42 aggregation (Aβ1-42 aggregation) [%] | cytotoxicity towards SH-SY5Y cells [3] | viability at 5 µM [4] [%] | viability at 10 µM [4] [%] | fold increase in BChE inhibitory potency ([2]; compared with 9) | fold increase in BChE inhibitory potency ([2]; compared with 16) [fold] | Ki (BChE; BChE, read-out: KI value (replot of slope against concentration)) [nM] | type of BChE inhibition (BChE; Lineweaver-Burk plots) | cell viability of Aβ1-42-treated SH-SY5Y cells ([4]; compound at 10 μM, 10 μM Aβ1-42 for 24h) [%]
1 | O=C(c1ccc(CN2CCc3ccccc3C2)cc1)N1CCCC1 [Compound 9, (4-((3,4-dihydroisoquinolin-2(1H)-yl)methyl)phenyl)(pyrrolidin-1-yl)methanone] | 29.1 | 95.1 | 9 | 2680 ± 280 | dose-dependent manner | 45.5 ± 6.2 | did not show obvious cytotoxicity; also recorded: non-toxic | 84.7 ± 1.77 | 88.8 ± 0.81 | – | – | – | – | –
2 | O=C(Nc1ccccc1Br)c1ccc(CN2CCc3ccccc3C2)cc1 [Compound 23, N-(2-bromophenyl)-4-((3,4-dihydroisoquinolin-2(1H)-yl)methyl)benzamide] | 22.7 | 97.9 | 21 | 830 ± 80 | dose-dependent manner | 44.2 ± 3.3 | did not show obvious cytotoxicity; also recorded: non-toxic | 91.1 ± 1.25 | 98 ± 1.7 | about 3 fold | ~8 | 520 | mixed-type inhibitor | –
3 | Cc1ccc2[nH]cc(CCNC(=O)c3ccc(CN4CCc5ccccc5C4)cc3)c2c1 [Compound 29, 4-((3,4-dihydroisoquinolin-2(1H)-yl)methyl)-N-(2-(5-methyl-1H-indol-3-yl)ethyl)benzamide] | 4.6 | 6.5 | – | – | – | – | – | – | – | – | – | – | – | –
4 | COc1ccc2[nH]cc(CCNC(=O)c3ccc(CN4CCc5ccccc5C4)cc3)c2c1 [Compound 30, 4-((3,4-dihydroisoquinolin-2(1H)-yl)methyl)-N-(2-(5-methoxy-1H-indol-3-yl)ethyl)benzamide] | 8.3 | 1.1 | – | – | – | – | – | – | – | – | – | – | – | –
5 | O=C(O[C@@H]1Cc2c(O)cc(O)cc2O[C@@H]1c1cc(O)c(O)c(O)c1)c1cc(O)c(O)c(O)c1 [EGCG, epigallocatechin gallate, reference compound] | – | – | – | – | – | – | – | – | – | – | – | – | – | 87.18 ± 1.29
